Results as given in the NIST ThermoML archive (doi:10.1016/j.fluid.2004.09.013).

Conditions: for mass density: Fluid (supercritical or subcritical phases), Vibrating tube method

C/C=C\C [(Z)-2-butene]
Conditions	Critical density [kg/m3]	mass density [kg/m3]
453.24 K, 29992 kPa	–	504.64
453.24 K, 34997 kPa	–	516.94
453.24 K, 39986 kPa	–	527.56
458.24 K, 5019 kPa	–	150.54
458.24 K, 9982 kPa	–	395.53
458.24 K, 14988 kPa	–	439.55
458.24 K, 20006 kPa	–	465.63
458.24 K, 24985 kPa	–	484.52
458.24 K, 30000 kPa	–	499.71
458.24 K, 34991 kPa	–	512.34
458.24 K, 39989 kPa	–	523.28
463.23 K, 39987 kPa	–	519.02
463.24 K, 5019 kPa	–	137.08
463.24 K, 9986 kPa	–	383.54
463.24 K, 14987 kPa	–	431.68
463.24 K, 20001 kPa	–	459.21
463.24 K, 24986 kPa	–	479.01
463.24 K, 29986 kPa	–	494.71
463.24 K, 34995 kPa	–	507.77
468.24 K, 5018 kPa	–	127.59
468.24 K, 10000 kPa	–	371.16
468.24 K, 14996 kPa	–	423.86
468.24 K, 20007 kPa	–	452.9
468.24 K, 24993 kPa	–	473.52
468.24 K, 29993 kPa	–	489.76
468.24 K, 34996 kPa	–	503.22
468.24 K, 40007 kPa	–	514.77
473.23 K, 5018 kPa	–	120.28
473.24 K, 9991 kPa	–	357.88
473.24 K, 14997 kPa	–	415.28
473.24 K, 20004 kPa	–	446.42
473.24 K, 25004 kPa	–	467.94
473.24 K, 30000 kPa	–	484.78
473.24 K, 34996 kPa	–	498.62
473.24 K, 39991 kPa	–	510.47
478.23 K, 14995 kPa	–	407.2
478.23 K, 19994 kPa	–	439.87
478.23 K, 25001 kPa	–	462.4
478.23 K, 35013 kPa	–	494.09
478.23 K, 39992 kPa	–	506.21
478.24 K, 5015 kPa	–	114.19
478.24 K, 9987 kPa	–	344.22
478.24 K, 29999 kPa	–	479.77
483.23 K, 5018 kPa	–	109.23
483.23 K, 19992 kPa	–	433.21
483.24 K, 10014 kPa	–	330.62
483.24 K, 14991 kPa	–	398.7
483.24 K, 25005 kPa	–	456.72
483.24 K, 29995 kPa	–	474.68
483.24 K, 34999 kPa	–	489.39
483.24 K, 39992 kPa	–	501.87
488.23 K, 5019 kPa	–	104.99
488.23 K, 19987 kPa	–	426.61
488.23 K, 25005 kPa	–	451.11
488.23 K, 29989 kPa	–	469.66
488.23 K, 34990 kPa	–	484.81
488.23 K, 39992 kPa	–	497.63
488.24 K, 10014 kPa	–	316.46
488.24 K, 15002 kPa	–	390.34
493.23 K, 5016 kPa	–	101.23
493.23 K, 9986 kPa	–	301.65
493.23 K, 14996 kPa	–	381.74
493.23 K, 19990 kPa	–	420.02
493.23 K, 24987 kPa	–	445.42
493.23 K, 29998 kPa	–	464.71
493.23 K, 35003 kPa	–	480.29
493.23 K, 40013 kPa	–	493.44
498.23 K, 5018 kPa	–	97.97
498.23 K, 9985 kPa	–	287.72
498.23 K, 14994 kPa	–	373.12
498.23 K, 19993 kPa	–	413.38
498.23 K, 24997 kPa	–	439.84
498.23 K, 29994 kPa	–	459.71
498.23 K, 35006 kPa	–	475.76
498.23 K, 40006 kPa	–	489.2
503.23 K, 5019 kPa	–	95.03
503.23 K, 10004 kPa	–	274.87
503.23 K, 14996 kPa	–	364.53
503.23 K, 20003 kPa	–	406.9
503.23 K, 24990 kPa	–	434.25
503.23 K, 29984 kPa	–	454.72
503.23 K, 34985 kPa	–	471.2
503.23 K, 39993 kPa	–	485.02
508.23 K, 5019 kPa	–	92.41
508.23 K, 9990 kPa	–	262
508.23 K, 15002 kPa	–	356.04
508.23 K, 19984 kPa	–	400.28
508.23 K, 25008 kPa	–	428.76
508.23 K, 29983 kPa	–	449.83
508.23 K, 35004 kPa	–	466.79
508.23 K, 40004 kPa	–	480.91
513.23 K, 5014 kPa	–	89.94
513.23 K, 9984 kPa	–	250.08
513.23 K, 14990 kPa	–	347.39
513.23 K, 19997 kPa	–	393.83
513.23 K, 25007 kPa	–	423.21
513.23 K, 29985 kPa	–	444.89
513.23 K, 35002 kPa	–	462.3
513.23 K, 40010 kPa	–	476.76
518.22 K, 5019 kPa	–	87.78
518.22 K, 14988 kPa	–	338.79
518.22 K, 25002 kPa	–	417.6
518.22 K, 30005 kPa	–	440.02
518.22 K, 39988 kPa	–	472.55
518.23 K, 9996 kPa	–	239.51
518.23 K, 20004 kPa	–	386.86
518.23 K, 34991 kPa	–	457.76
523.22 K, 5019 kPa	–	85.68
523.22 K, 9990 kPa	–	229.24
523.22 K, 14985 kPa	–	330.32
523.22 K, 25011 kPa	–	412.04
523.22 K, 29990 kPa	–	435.04
523.22 K, 34984 kPa	–	453.26
523.22 K, 40013 kPa	–	468.46
523.23 K, 20001 kPa	–	380.33
Liquid, visual observation in a variable volume cell:FP	238.12	–

Liquid
Conditions	Critical pressure [kPa]	Critical temperature [K]
–	4225.5	435.75
